Patent US20140099385A1, “INHIBITION OF FATTY ACID AND C[…] BY CARBON MONOXIDE (CO)” (priority 2011, published 2014)

Key:
PGRMC1 = PGRMC1 (Homo sapiens, UniProt O00264); assay: Absorption spectrum of the PGRMC1 protein (CO binding to heme); settings: FIG. 3
Text: FIG. 3 is the graphs showing the absorption spectrum of the PGRMC1 protein.
Furthermore, PGRMC1 (Progesterone Receptor Membrane associated Component 1) was identified as one of the molecules involved with the inhibition of fatty acid or cholesterol uptake by CO. PGRMC1 is a heme binding protein, and an absorption peak is thought to have appeared at 419 nm because CO bound to the heme of PGRMC1 (FIG. 3). […] Thus, when the PGRMC1 gene was knocked down in a cell, the uptake of a fatty acid was suppressed (FIG. 4).

[1] = 25° C.; cited from earlier work
HuH7 cell [2] = assay: LDL uptake inhibition in a cell by CO (FITC-conjugated LDL, fluorescence microscope); assay type: cell-based, human; settings: FITC-conjugated LDL 8 mg/ml, 1 μM CO—Ru, 2 hours, FIG. 2
Protocol: After culturing the HuH7 cell in the same manner as above in a dish covered with a slide glass, the medium was discarded, and fluorescence-labeled FITC-conjugated LDL (Molecular Probes) was added to serum free DMEM so as to give the final concentration of 8 mg/ml to carry out the culture for 2 hours (control). Additionally, at the same time with this procedure, 1 μM of CO—Ru was added in the same manner as above to carry out the analysis. After culturing, the medium was discarded, the cell was washed 3 times with PBS and DAPI reagent (2 ng/ml; Wako Pure Chemical Industries, Ltd.) was added to react for 5 minutes. The observation was carried out using a fluorescence microscope, whereby FITC-LDL derived Green fluorescence as the […] and DAPI derived Blue fluorescence were detected. […] On the other hand, in the cell to which CO—Ru was added, the margin of blue stained area is not stained green.

[3] = system: human hepatoma cell line HuH7 cell; assay: Stearic acid uptake inhibition in a cell by CO (Nile Red staining, fluorescence microscope); assay type: cell-based; settings: 400 μM stearic acid, 1 μM test substance, 12 hours, FIG. 1
Protocol: The human hepatoma cell line HuH7 cell was seeded in a 6-well plate (Iwaki) covered with a slide glass (1 cm^2; matsunami glass) and cultured using DMEM+10% FCS in a CO2 incubator overnight. After the culture, the medium was discarded, 1% BSA (Wako Pure Chemical Industries, Ltd.) wherein stearic acid (sigma) was dissolved in serum free DMEM to give a final concentration of 400 μM was added thereto, and the cell was cultured again for 12 hours in a CO2 incubator. Further, as a CO sustained-release drug, 1 μM of CO—Ru (Sigma CORM2 ([Ru(CO)3Cl2]2)) was used) or 1 μM of ruthenium complex as a control was added together with a fatty acid to carry out the culture. Subsequently, the medium was discarded, the cell was washed 3 times with PBS, and Nile Red reagent (sigma) dissolved in PBS on the slide glass so as to be 100 ng/ml was added to react for 5 minutes, thereby staining the fatty acid. Further, the cell was washed 3 times with PBS, DAPI reagent (2 ng/ml; Wako Pure Chemical Industries, Ltd.) was added to react for 5 minutes, thereby staining the nucleus. The nucleus was observed using a fluorescence microscope, whereby Nile Red derived Green fluorescence as the fatty acid and DAPI derived Blue fluorescence were detected. […]

HuH7 cell [4] = assay: Stearic acid and palmitic acid uptake in a cell wherein the PGRMC1 gene is knocked down by siRNA; assay type: cell-based, human; settings: HuH7 cell transfected with siRNA
Protocol: In the experiment of Example 1, siRNA (sequence: […]) (SEQ ID NO: 1) targeting PGRMC1 was transfected to the cell line HuH7 cell derived from human hepatocellular carcinoma by the lipofection method (Lipofectamin 2000, INVITROGEN Corporation) to knockdown the PGMRMC1 gene. In the same manner as in Example 1, 1% BSA (Wako Pure Chemical Industries, Ltd.) wherein stearic acid (sigma) or palmitic acid was dissolved to give the final concentration of 400 μM was added to the HuH7 cell wherein the PGRMC1 gene was knocked down, and the cell was cultured. The medium was discarded, the cell was washed 3 times with PBS, and Nile Red reagent (sigma) dissolved in PBS on the slide glass so as to be 100 ng/ml was added to react for 5 minutes, thereby staining the fatty acid. Further, the cell was washed 3 times with PBS, DAPI reagent (2 ng/ml; Wako Pure Chemical Industries, Ltd.) was added to react for 5 minutes, thereby staining the nucleus. The nucleus was observed using a fluorescence microscope, whereby Nile Red derived Green fluorescence as the fatty acid and DAPI derived Blue fluorescence were detected. […] On the other hand, when palmitic acid (FIG. 4C) or stearic acid (FIG. 4D) was added to the cell wherein the PGRMC1 gene was knocked down, the margin of blue stained area is not stained green.

PGRMC1, sequence (O00264 whole entry, species assumed): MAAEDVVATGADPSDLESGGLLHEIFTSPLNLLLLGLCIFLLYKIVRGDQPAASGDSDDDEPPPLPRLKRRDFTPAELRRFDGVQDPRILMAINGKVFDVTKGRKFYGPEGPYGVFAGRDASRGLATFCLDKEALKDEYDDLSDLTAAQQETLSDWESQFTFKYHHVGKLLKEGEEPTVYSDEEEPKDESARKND

## [C-]#[O+] [CO, carbon monoxide]
PGRMC1
  absorption peak on CO binding to the heme of PGRMC1: 419 nm
[1]
  amount of CO that can be dissolved in aqueous solution: about 21.4 mL per liter

## [C-]#[O+].[C-]#[O+].[C-]#[O+].[C-]#[O+].[C-]#[O+].[C-]#[O+].[Cl][Ru][Cl].[Cl][Ru][Cl] [CO—Ru, [Ru(CO)3Cl2]2]
HuH7 cell [2]
  uptake of LDL in the cell (FITC-LDL green fluorescence): the uptake of LDL was inhibited
[3]
  uptake of stearic acid in the cell (green Nile Red staining): the uptake of stearic acid was inhibited

## siRNA: siRNA (sequence: GAUGUGACCAAAGGCCCGCAAAUUCU) targeting PGRMC1 (listed as RNA, chemistry not given here)
HuH7 cell [4]; 400 μM palmitic acid, FIG. 4C
  uptake of palmitic acid in the PGRMC1 knockdown cell: inhibited
HuH7 cell [4]; 400 μM stearic acid, FIG. 4D
  uptake of stearic acid in the PGRMC1 knockdown cell: inhibited
